# Experiments:
# [1] = test system: c-Fos protein expression in the paraventricular nucleus (PVN); test: HPA axis activation: c-Fos labeling in the PVN; assay type: in vivo, mouse; conditions: for c-Fos protein expression in PVN: C57BL/6J mice
# NAPE-PLD = biological target: T1, NAPE-PLD (Mus musculus, UniProt Q8BH82); test: LC-MS-based endogenous NAPE-PLD activity assay; assay type: biochemical
# T1 sequence (Q8BH82 1-396): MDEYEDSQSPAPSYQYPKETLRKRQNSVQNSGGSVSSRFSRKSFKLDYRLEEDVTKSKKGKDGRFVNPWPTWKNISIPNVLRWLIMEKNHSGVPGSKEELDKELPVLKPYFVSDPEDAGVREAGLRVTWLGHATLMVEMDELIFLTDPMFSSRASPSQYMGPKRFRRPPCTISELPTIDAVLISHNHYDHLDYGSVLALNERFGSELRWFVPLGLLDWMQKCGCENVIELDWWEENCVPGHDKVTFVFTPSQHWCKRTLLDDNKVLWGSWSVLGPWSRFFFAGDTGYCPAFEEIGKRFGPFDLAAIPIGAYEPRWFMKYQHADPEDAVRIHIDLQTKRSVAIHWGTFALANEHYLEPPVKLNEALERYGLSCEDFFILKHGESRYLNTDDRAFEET
# cannabinoid CB1 receptor = cannabinoid CB1 receptor (Homo sapiens, UniProt P21554); test: [3H]CP55940 radioligand displacement assay CB1; assay type: binding; conditions: at 10 μM
# Chain of cannabinoid CB1 receptor (P21554 whole entry): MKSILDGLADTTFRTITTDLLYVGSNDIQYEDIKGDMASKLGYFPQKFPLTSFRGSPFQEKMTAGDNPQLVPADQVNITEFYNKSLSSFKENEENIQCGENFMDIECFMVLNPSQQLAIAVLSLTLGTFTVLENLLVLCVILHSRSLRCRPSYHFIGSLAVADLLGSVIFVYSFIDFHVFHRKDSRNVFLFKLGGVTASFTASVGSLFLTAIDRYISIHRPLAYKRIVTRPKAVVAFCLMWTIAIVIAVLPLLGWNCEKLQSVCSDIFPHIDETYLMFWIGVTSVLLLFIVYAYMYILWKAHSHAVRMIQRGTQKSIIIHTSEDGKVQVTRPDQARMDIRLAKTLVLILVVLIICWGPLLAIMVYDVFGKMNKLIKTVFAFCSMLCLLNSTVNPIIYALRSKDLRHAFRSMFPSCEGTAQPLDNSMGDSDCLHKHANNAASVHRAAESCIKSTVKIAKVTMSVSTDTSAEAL
# cannabinoid CB2 receptor = cannabinoid CB2 receptor (Homo sapiens, UniProt P34972); test: [3H]CP55940 radioligand displacement assay CB2; assay type: binding; conditions: at 10 μM
# Chain of cannabinoid CB2 receptor (P34972 whole entry): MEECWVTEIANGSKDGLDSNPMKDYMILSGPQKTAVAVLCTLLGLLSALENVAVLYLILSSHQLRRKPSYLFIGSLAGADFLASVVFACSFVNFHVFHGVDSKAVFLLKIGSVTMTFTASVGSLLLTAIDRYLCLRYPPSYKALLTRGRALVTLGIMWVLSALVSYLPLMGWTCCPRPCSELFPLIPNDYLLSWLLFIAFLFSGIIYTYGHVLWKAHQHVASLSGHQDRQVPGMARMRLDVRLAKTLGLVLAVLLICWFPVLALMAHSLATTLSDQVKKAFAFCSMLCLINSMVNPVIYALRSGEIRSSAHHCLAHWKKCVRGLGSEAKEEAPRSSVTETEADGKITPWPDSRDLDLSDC
# PLA2G4E = biological target: T2, PLA2G4E (Homo sapiens, UniProt Q3MJ16); test: Gel-based ABPP, hPLA2G4E overexpressing membrane lysate; assay type: biochemical; conditions: at 10 μM
# T2 sequence (Q3MJ16 1-868): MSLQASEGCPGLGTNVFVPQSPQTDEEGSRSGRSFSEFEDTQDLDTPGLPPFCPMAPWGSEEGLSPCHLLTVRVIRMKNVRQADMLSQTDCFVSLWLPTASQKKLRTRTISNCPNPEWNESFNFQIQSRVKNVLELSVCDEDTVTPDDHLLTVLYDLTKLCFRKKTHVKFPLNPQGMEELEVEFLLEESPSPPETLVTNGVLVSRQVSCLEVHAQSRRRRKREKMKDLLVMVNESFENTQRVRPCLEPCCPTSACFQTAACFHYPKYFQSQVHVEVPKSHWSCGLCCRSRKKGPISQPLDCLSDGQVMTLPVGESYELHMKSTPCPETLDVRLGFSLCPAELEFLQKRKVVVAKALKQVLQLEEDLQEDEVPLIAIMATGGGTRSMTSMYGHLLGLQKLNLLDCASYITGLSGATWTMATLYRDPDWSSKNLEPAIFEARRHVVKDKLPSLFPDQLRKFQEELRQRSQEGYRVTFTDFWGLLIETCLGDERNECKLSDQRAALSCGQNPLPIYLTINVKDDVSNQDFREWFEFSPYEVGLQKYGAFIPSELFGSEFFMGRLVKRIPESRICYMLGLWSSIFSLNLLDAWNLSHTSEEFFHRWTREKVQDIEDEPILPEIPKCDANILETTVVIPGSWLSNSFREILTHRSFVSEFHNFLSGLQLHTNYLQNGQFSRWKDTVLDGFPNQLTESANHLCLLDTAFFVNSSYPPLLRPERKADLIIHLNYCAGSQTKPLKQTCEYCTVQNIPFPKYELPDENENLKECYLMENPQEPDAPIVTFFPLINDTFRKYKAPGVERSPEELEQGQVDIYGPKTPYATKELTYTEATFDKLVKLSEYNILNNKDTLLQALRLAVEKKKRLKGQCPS
# FAAH = biological target: T3, FAAH (Mus musculus, UniProt O08914); test: Gel-based ABPP, mouse brain membrane proteome; assay type: biochemical; conditions: at 10 μM
# T3 sequence (O08914 1-579): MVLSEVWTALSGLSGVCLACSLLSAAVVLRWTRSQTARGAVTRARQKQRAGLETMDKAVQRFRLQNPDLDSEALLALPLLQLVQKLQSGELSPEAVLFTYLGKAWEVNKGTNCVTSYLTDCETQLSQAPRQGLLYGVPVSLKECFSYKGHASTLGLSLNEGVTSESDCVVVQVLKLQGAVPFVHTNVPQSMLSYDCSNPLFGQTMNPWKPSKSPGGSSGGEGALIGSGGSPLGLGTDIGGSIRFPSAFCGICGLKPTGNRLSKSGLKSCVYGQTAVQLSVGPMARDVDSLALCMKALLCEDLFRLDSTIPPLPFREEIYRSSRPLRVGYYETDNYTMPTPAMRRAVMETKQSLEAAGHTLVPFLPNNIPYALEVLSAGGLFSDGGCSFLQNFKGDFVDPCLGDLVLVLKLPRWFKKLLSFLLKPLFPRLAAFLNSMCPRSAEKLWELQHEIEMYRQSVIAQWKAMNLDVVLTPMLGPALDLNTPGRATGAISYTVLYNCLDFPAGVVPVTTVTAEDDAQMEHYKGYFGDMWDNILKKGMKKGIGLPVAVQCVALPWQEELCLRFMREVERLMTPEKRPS
# DAGLα = test: Natural substrate-based fluorescence assay DAGLα; assay type: biochemical, human and mouse
# mDAGLβ = biological target: T4, mDAGLβ (Mus musculus, UniProt Q91WC9); test: Surrogate substrate-based fluorescence assay DAGLβ; assay type: biochemical
# T4 sequence (Q91WC9 1-669): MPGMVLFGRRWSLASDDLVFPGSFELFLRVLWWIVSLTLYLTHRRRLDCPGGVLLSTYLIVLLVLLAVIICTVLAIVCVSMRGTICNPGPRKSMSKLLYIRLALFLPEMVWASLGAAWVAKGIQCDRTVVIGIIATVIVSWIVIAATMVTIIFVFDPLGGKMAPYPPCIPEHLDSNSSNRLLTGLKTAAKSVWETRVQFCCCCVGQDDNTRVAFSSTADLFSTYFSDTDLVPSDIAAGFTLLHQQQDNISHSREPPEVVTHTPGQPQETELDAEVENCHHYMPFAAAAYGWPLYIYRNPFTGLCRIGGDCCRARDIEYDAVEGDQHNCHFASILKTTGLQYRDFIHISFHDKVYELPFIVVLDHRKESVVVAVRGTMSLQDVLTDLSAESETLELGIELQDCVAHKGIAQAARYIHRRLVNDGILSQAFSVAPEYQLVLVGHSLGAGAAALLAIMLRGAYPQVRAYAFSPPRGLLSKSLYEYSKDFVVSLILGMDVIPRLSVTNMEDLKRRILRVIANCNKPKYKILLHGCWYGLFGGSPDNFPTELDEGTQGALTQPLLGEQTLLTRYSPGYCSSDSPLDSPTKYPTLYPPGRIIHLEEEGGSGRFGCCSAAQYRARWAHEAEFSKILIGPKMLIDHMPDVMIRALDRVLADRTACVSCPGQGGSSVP
# human MAGL = biological target: T5, human MAGL (Homo sapiens, UniProt Q99685); test: Natural substrate-based fluorescence assay MAGL; assay type: biochemical
# T5 sequence (Q99685 1-303): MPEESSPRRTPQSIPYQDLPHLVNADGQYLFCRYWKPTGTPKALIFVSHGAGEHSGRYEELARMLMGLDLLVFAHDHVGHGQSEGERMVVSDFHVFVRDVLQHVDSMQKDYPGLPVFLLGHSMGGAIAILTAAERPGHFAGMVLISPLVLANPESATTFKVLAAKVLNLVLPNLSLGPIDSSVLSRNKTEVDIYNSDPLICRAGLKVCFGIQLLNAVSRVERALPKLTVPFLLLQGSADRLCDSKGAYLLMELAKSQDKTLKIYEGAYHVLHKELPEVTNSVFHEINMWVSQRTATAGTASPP
# ABHD6 = biological target: T6, ABHD6 (Mus musculus, UniProt Q8R2Y0); test: Gel-based ABPP, mouse brain membrane proteome; assay type: biochemical
# T6 sequence (Q8R2Y0 1-336): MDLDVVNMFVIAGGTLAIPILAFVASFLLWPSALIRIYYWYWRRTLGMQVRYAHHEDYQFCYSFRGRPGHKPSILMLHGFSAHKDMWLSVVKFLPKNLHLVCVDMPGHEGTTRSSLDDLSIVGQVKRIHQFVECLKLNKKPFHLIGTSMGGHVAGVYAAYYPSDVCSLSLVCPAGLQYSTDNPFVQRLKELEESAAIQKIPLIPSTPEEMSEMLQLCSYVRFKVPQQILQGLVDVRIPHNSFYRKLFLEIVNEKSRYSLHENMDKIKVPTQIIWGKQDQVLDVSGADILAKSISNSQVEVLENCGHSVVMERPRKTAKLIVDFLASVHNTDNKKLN
# [2] = biological target: protein targets of photoprobe 10 in hNAPE-PLD-FLAG-transfected HEK293T cells (Homo sapiens, UniProt Q6IQ20); test: Chemical proteomics-based photoaffinity labeling; assay type: cell-based; conditions: photoprobe 10 2 μM versus LEI-401 20 μM
# Chain of protein targets of photoprobe 10 in hNAPE-PLD-FLAG-transfected HEK293T cells (Q6IQ20 whole entry): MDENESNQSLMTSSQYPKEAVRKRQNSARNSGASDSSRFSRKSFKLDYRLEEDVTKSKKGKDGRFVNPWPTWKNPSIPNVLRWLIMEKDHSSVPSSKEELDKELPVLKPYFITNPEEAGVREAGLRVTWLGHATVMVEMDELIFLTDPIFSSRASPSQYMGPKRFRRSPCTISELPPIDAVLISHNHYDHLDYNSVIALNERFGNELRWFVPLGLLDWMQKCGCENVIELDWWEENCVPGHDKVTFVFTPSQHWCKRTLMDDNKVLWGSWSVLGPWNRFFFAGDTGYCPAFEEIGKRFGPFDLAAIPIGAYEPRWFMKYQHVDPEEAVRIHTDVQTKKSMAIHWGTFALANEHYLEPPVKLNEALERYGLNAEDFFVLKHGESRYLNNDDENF
# Neuro-2a cells [3] = test: Targeted lipidomics in Neuro-2a cells; assay type: cell-based, mouse; conditions: 10 μM, 2 h
# Neuro-2a cells [4] = test: Live cell count with trypan blue; assay type: cell-based, mouse; conditions: 10 μM, 2 h
# logD-assay = assay type: physicochemical; conditions: octanol/water
# [5] = Kinetic aqueous solubility; assay type: physicochemical; conditions: phosphate buffer pH 6.5
# [6] = Microsomal clearance, human; assay type: in vitro ADME; conditions: 1 μM
# [7] = Microsomal clearance, mouse; assay type: in vitro ADME; conditions: 1 μM
# [8] = Hepatocyte clearance, human; assay type: in vitro ADME; conditions: 1 μM
# [9] = Hepatocyte clearance, mouse; assay type: in vitro ADME; conditions: 1 μM
# [10] = Plasma protein binding, human; assay type: in vitro ADME; conditions: equilibrium dialysis
# [11] = Plasma protein binding, mouse; assay type: in vitro ADME; conditions: equilibrium dialysis
# human PGP-transporter = human PGP-transporter (Homo sapiens, UniProt P08183); test: P-glycoprotein active efflux assay, human; assay type: in vitro ADME
# Chain of human PGP-transporter (P08183 whole entry): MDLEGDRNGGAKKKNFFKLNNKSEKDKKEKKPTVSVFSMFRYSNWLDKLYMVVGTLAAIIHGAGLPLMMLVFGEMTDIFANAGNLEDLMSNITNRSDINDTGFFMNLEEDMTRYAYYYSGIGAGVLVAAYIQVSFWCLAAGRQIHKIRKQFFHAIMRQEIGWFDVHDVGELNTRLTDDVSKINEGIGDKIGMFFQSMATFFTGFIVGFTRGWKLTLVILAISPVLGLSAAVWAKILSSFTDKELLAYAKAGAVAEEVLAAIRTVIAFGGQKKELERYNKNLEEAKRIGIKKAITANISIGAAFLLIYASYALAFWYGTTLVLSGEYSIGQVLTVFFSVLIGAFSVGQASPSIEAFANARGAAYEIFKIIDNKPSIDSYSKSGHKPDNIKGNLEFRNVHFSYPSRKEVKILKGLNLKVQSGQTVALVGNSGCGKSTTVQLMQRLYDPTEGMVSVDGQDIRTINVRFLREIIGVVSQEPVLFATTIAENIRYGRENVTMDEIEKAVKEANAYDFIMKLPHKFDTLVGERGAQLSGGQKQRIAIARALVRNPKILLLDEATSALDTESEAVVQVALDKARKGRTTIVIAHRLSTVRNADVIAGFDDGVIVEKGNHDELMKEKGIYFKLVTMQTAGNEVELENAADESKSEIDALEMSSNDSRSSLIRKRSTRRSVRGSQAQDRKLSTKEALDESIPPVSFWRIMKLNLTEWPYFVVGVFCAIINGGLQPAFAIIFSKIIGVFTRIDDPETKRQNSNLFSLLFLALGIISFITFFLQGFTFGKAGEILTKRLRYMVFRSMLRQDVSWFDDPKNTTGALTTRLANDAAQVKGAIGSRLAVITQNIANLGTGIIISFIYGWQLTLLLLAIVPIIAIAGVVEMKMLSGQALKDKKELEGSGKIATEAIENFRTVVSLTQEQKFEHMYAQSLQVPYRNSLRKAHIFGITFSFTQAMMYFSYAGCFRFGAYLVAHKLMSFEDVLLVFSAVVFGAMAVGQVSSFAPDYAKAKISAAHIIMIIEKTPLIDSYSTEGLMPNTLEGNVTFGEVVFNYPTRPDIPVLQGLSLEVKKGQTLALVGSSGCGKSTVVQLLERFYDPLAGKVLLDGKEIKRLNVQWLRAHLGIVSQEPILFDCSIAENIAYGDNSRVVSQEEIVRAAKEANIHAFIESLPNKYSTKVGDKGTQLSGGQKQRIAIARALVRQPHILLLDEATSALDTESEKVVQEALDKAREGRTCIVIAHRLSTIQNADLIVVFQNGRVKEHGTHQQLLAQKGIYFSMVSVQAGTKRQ
# mouse PGP-transporter = mouse PGP-transporter (Mus musculus, UniProt P21447); test: P-glycoprotein active efflux assay, mouse; assay type: in vitro ADME
# Chain of mouse PGP-transporter (P21447 whole entry): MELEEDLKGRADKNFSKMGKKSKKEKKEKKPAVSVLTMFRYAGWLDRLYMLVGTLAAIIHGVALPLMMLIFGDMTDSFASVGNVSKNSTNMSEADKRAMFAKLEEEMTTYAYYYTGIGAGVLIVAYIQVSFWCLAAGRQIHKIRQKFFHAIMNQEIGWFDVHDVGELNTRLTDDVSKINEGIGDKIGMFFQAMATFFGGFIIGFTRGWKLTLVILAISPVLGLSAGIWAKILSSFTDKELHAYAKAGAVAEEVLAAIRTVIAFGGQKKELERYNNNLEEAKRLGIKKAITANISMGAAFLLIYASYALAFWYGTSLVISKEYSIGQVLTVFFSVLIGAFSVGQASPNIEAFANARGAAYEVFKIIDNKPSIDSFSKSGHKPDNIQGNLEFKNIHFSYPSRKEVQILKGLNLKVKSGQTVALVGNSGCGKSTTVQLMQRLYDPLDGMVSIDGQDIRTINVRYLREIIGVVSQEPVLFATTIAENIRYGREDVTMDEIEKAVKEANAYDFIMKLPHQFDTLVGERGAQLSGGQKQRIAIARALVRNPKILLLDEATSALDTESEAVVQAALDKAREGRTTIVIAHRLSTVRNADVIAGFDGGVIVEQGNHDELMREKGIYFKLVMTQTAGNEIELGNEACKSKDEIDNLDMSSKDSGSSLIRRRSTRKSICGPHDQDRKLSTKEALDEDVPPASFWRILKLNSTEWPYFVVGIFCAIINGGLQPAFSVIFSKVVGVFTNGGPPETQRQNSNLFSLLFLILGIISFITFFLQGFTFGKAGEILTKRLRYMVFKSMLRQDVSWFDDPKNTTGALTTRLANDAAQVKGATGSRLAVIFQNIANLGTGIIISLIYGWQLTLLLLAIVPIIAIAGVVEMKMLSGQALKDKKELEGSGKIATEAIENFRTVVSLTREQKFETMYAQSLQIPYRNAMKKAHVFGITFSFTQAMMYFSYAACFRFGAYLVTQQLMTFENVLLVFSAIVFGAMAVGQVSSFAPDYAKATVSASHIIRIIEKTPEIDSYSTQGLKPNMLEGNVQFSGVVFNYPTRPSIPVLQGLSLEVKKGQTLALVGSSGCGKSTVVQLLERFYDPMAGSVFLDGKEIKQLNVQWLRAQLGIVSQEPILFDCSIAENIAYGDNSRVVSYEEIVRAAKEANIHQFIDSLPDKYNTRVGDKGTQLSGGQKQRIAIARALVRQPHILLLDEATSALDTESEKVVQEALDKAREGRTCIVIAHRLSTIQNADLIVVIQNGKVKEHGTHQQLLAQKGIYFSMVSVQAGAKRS
# brain NAE levels = test: Lipid measurements in mouse brain; assay type: in vivo
# DAGLα/β, MAGL and ABHD6 = test: In vitro ABPP of brain of LEI-401-treated mice; assay type: in vivo, mouse; conditions: male C57BL/6J mice; 30 mg kg^−1 i.p.; 2 h; ABPP of brain membrane lysate
# [12] = test system: circulating corticosterone (CORT); test: HPA axis activation: circulating CORT measurements; conditions: cotreatment 1 mg kg^−1 i.p. with LEI-401 30 mg kg^−1 i.p.; P = 0.0027
# [13] = WT littermates of NAPE-PLD KO animals, mixed 129SvJ-C57BL/6 background
structure (smiles),measurement,setting,value
Cc1c(C(=O)NN2CCCCC2)nn(-c2ccc(Cl)cc2Cl)c1-c1ccc(I)cc1 [AM251],c-Fos protein expression in PVN,"[1]; 3 mg kg^−1 i.p. single dose, 105 min before perfusion, P = 0.011",elevated c-Fos protein expression
O=C(NCC1CC1)c1cc(N2CC[C@H](O)C2)nc(N2CCC[C@@H](c3ccccc3)C2)n1 [LEI-401],C17:0-NAE formation from C17:0-NAPE,NAPE-PLD; brain homogenates of NAPE-PLD KO mice,not from KO mice
same,C17:0-NAE formation from C17:0-NAPE,NAPE-PLD; brain homogenates of WT mice,reduced C17:0-NAE formation
same,"inhibitory activity, cannabinoid receptor type 1",cannabinoid CB1 receptor,No inhibitory activities
same,"inhibitory activity, cannabinoid receptor type 2",cannabinoid CB2 receptor,No inhibitory activities
same,"inhibitory activity, PLA2G4E",PLA2G4E,No inhibitory activities
same,"inhibitory activity, FAAH",FAAH,No inhibitory activities
same,inhibition of DAGLα,DAGLα,did not inhibit
same,inhibition of DAGLβ,mDAGLβ,did not inhibit
same,inhibition of MAGL,human MAGL,did not inhibit
same,inhibition of ABHD6,ABHD6,did not inhibit
same,competition of NAPE-PLD labeling by probe 10,[2],labeling could be prevented
same,anandamide level,Neuro-2a cells [3]; Neuro-2a NAPE-PLD KO cells,not in NAPE-PLD KO cells
same,anandamide level,Neuro-2a cells [3]; Neuro-2a WT cells,twofold reduction
same,"other saturated, mono- and (ω−6)-polyunsaturated NAE levels",Neuro-2a cells [3]; Neuro-2a WT cells,twofold decrease
same,(ω−3)-polyunsaturated EPEA and DHEA levels,Neuro-2a cells [3]; Neuro-2a cells,did not respond
same,cell viability,Neuro-2a cells [4],did not show any sign of reduced cell viability
same,logD,logD-assay,3.3
same,aqueous solubility,[5],1.7 µg/mL
same,clearance in human microsomes,[6],10 μl min^−1 mg^−1 protein
same,clearance in mouse microsomes,[7],42 μl min^−1 mg^−1 protein
same,clearance in human hepatocytes,[8],6.9 μl min^−1 per 10^6 cells
same,clearance in mouse hepatocytes,[9],28.8 μl min^−1 per 10^6 cells
same,human protein binding,[10],> 99.8%
same,mouse protein binding,[11],> 99.8%
same,"efflux ratio, human PGP-transporter",human PGP-transporter,1.7
same,"efflux ratio, mouse PGP-transporter",mouse PGP-transporter,1.8
same,brain 2-AG levels,"brain NAE levels; C57BL/6J mice, 30 mg kg^−1 i.p.",not significantly affected
same,"brain anandamide level, dose response","brain NAE levels; C57BL/6J mice, 30 mg kg^−1 i.p., 2 h",significantly reduced anandamide
same,brain NAE levels in NAPE-PLD KO mice,"brain NAE levels; NAPE-PLD KO mice, mixed 129SvJ-C57BL/6 background",did not reduce
same,brain AA levels at high dose,"brain NAE levels; WT and NAPE-PLD KO mice (both genotypes), 60 mg kg^−1",decreased
same,brain NAPE and pNAPE species,"brain NAE levels; WT and NAPE-PLD KO mice, compared to vehicle",No change
same,brain PEA and OEA levels in WT littermates,brain NAE levels; [13],significantly reduced
same,brain anandamide levels in WT littermates,brain NAE levels; [13],not decreased
same,"brain anandamide level, time course","brain NAE levels; male C57BL/6J mice, 30 mg kg^−1 i.p. single dose, 1, 2, 4, 8 h, significant at 2 h, vehicle level by 4 h",significant and time-dependent reduction
same,"activity of DAGLα/β, MAGL and ABHD6 in the brain","DAGLα/β, MAGL and ABHD6",not affected
same,c-Fos protein expression in PVN,"[1]; 30 mg kg^−1 i.p. single dose, 210 min before perfusion, P< 0.0001",elevated c-Fos protein expression
NC(=O)c1cccc(-c2cccc(OC(=O)NC3CCCCC3)c2)c1 [URB597],effect on LEI-401-induced c-Fos protein expression in PVN,"[1]; cotreatment 1 mg kg^−1 i.p. with LEI-401 30 mg kg^−1 i.p., P=0.016",reversed by cotreatment
same,plasma CORT levels in LEI-401-treated mice on cotreatment,[12],not when cotreated with a FAAH inhibitor

# Source: paper PMC7468568 (Nature chemical biology, 2020)
